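How tested: cells in 96-well plates exposed to compound for 48 hours at five concentrations. GI50: concentration for 50% inhibition of growth. The concentration for full growth arrest is given as TGI.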
Columns and labels:
Assay in all cases: DTP human tumour cell line panel, 48 h
[1] = test system: KM12 colon
[2] = test system: SF-539 CNS
[3] = test system: RXF 393 renal
[4] = test system: NCI-H226 lung
[5] = test system: UACC-257 melanoma
[6] = test system: SNB-75 CNS
[7] = test system: NCI-H460 lung
[8] = test system: MALME-3M melanoma
[9] = test system: HOP-92 NSCLC
[10] = test system: CCRF-CEM leukemia

Row | Structure (SMILES) | GI50 [1] | TGI [1] | GI50 [2] | TGI [2] | GI50 [3] | TGI [3] | GI50 [4] | TGI [4] | GI50 [5] | TGI [5] | GI50 [6] | TGI [6] | GI50 [7] | TGI [7] | GI50 [8] | TGI [8] | GI50 [9] | TGI [9] | GI50 [10] | TGI [10]
1 | OCCNC(=S)Nc1ccc(-c2nc(N3C[C@H]4CC[C@@H](C3)O4)c3cccn3n2)cc1 | 0.0987 µM | 12.6 µM | 0.108 µM | 0.767 µM | < 0.0135 µM | 0.131 µM | 0.0305 µM | 0.714 µM | 0.0354 µM | 0.467 µM | < 0.0124 µM | 0.264 µM | 0.0312 µM | 19.4 µM | < 0.01 µM | 0.055 µM | < 0.0133 µM | 0.161 µM | 0.153 µM | > 40.6 µM
2 | CC[C@@]1(O)C(=O)OCc2c1cc1n(c2=O)Cc2cc3c([N+](=O)[O-])c(O)ccc3nc2-1 | 1.68 µM | 20.9 µM | 0.0449 µM | 0.357 µM | 0.328 µM | 2.05 µM | 1.29 µM |  | 1.19 µM | 16 µM | 0.151 µM | 1.12 µM | 0.053 µM | 1.14 µM | 1.06 µM | 12.7 µM | 1.26 µM | 6.56 µM | < 0.026 µM | 0.469 µM
3 | Cc1ccccc1NC(=O)N/C(N)=N/c1nc(C)c(C)s1 | 0.206 µM | > 100 µM | 0.254 µM | 4.38 µM | 0.187 µM | 0.907 µM | 2.08 µM | > 100 µM | > 100 µM | > 100 µM | 0.175 µM | 0.754 µM | 0.376 µM | > 100 µM | 3.54 µM | > 100 µM | 30 µM | > 100 µM | 0.243 µM | > 100 µM
4 | CN1CCN2c3ccccc3CC(C#N)(C#N)C2C1 (configuration not stated) |  | > 100 µM |  | > 100 µM |  | > 100 µM |  | > 100 µM |  | > 100 µM |  | > 100 µM |  | > 100 µM |  | > 100 µM |  | > 100 µM |  | > 100 µM
5 | COc1ccc2c(c1)[n+]([O-])c(/C(C)=N/NC(N)=S)c(C)[n+]2[O-] |  | > 100 µM |  | 97.9 µM |  | > 100 µM |  | > 100 µM |  | > 100 µM |  | > 100 µM |  | > 71.4 µM |  | > 100 µM |  | > 100 µM |  | > 100 µM
6 | C[C@@]1([C@H](OC(=O)c2cccc3ccccc23)C(N)=O)CO1 | 2.09 µM | 10.8 µM | 0.642 µM | 2.33 µM | 4.91 µM | > 21.3 µM | 1.46 µM | 5.9 µM | 4.65 µM | > 49 µM | 5.9 µM | 37.1 µM | 5.5 µM | > 30.1 µM | 3.18 µM | 11.2 µM | 2.81 µM | 17.3 µM | 1.1 µM | > 100 µM
7 | Cc1ccc(C(=O)Nc2ccc(CN3CCN(C)CC3)c(C(F)(F)F)c2)cc1C#Cc1cnc(N)c2ccc(C#N)cc12 | 0.304 µM | 17.4 µM | 3.52 µM | 12.3 µM | 0.0407 µM | 5.82 µM | 0.471 µM | > 50 µM | 0.332 µM | > 35 µM | 0.0468 µM | 13.4 µM | 0.557 µM | 16.6 µM | 0.0237 µM | 0.694 µM | 0.0134 µM | 0.714 µM | 0.807 µM | 18 µM
8 | COc1ccc(NC(=O)COc2ccccc2)c(C(N)=O)c1 | 0.52 µM | > 50.3 µM | 0.506 µM | 4.01 µM | 1.9 µM | 13.5 µM | 20.9 µM | > 100 µM | > 100 µM | > 100 µM | 0.398 µM | 11.2 µM | 0.605 µM | > 56.7 µM | 69 µM | > 100 µM | 2.87 µM | > 78 µM | 0.961 µM | > 100 µM
9 | C=C(c1ccc(OC)c(/C=C/C(=O)c2cc(OC)c(OC)c(OC)c2)c1)c1cc(OC)c(OC)c(OC)c1 | 1.16 µM | 2.72 µM | 1.41 µM | 3.05 µM | 1.11 µM | 2.62 µM | 1.41 µM | 3.29 µM | 1.63 µM | 5.11 µM | 0.892 µM | 7.08 µM | 1.44 µM | 3.54 µM | 1.88 µM | 4.45 µM | 1.14 µM | 6.9 µM | 0.359 µM | > 100 µM
10 | Nc1nc(=O)c2[nH]cnc2n1O |  | > 100 µM |  | > 100 µM |  | > 100 µM |  | > 100 µM |  | > 100 µM |  | > 100 µM |  | > 100 µM |  | > 100 µM |  | > 100 µM |  | > 100 µM
11 | COc1ccc(-c2cc(=O)c3c(OC)c(O)c(OC)cc3o2)cc1 |  |  |  | > 100 µM |  | > 100 µM |  | > 100 µM |  | > 100 µM |  | > 100 µM |  | > 100 µM |  | > 100 µM |  | 89.6 µM |  | > 100 µM
12 | O=c1/c(=C/c2ccccc2O)sc2nc3ccccc3n12 |  |  |  | > 100 µM |  | 57.9 µM |  | > 100 µM |  | > 100 µM |  | > 100 µM |  | > 100 µM |  | > 100 µM |  | > 100 µM |  | 45.6 µM

From PubChem BioAssay (NCI)
